# Assay results published in patent publication US20080027098A1, “Derivatives of alpha-phenylthiocarboxylic and alpha-phenyloxy-carboxylic acids useful for the treatment of diseases responding to PPARalpha activation” (SIGMA-TAU INDUSTRIE FARMACEUTICHE RIUNITE S.p.A., priority 2002, published 2008).
# Marks after values point to notes of the source that are not given here.
# Tests used:
# [1] = system: high-cholesterol diet-fed CD-1 mice; assay: Hypolipidemic activity in high-cholesterol diet-fed CD-1 mice; format: in vivo; details: 16 days; for P-triglycerides / P-Cholesterol: post-absorptive state; for P-triglycerides: control 49 ± 3; for P-Cholesterol: control 350 ± 28
# Protocol: High-Cholesterol Diet-Fed CD-1 Mice
# ST2518, fenofibrate, rosiglitazone and pioglitazone (PPARγ agonists) were administered by gavage, for 16 days, to CD-1 mice fed with high-cholesterol diet, and plasma parameters were evaluated in post-absorptive state.
# [2] = system: standard diet-fed c57bl/6j mice; assay: Hypolipidemic activity in standard diet-fed c57bl/6j mice; format: in vivo; details: for Triglycerides (plasma): 15 days, post-absorptive state, control 53.8 ± 4.2
# Protocol: Standard Diet-Fed c57bl/6j Mice
# ST2518 was evaluated in comparison with fenofibrate also in c57b1/6j mice fed with standard diet (Table 5).
# hAPO A I transgenic mice = assay: Plasma lipid parameters in hAPO A I transgenic mice; format: in vivo; details: 16 days; for P-triglycerides / P-hdl-cholesterol: post-absorptive state; for P-triglycerides: control 75 ± 6; for P-hdl-cholesterol: control 163 ± 6
# Protocol: ST2518, fenofibrate and rosiglitazone were administered by gavage for 16 days, and plasma (p) parameters were evaluated in post-absorptive state.
# db/db mice = assay: Increase in HDL-cholesterol levels in db/db mice; format: in vivo
# Protocol: Increase in HDL-Cholesterol Levels in db/db Mice
# In this experiment db/db mice were used in which PPARα expression is above normal (Memon et al., Endocrinology 2000, 4021-4031) and HDL-cholesterol levels are substantially elevated (Silver et al., J Biol Chem 1999, 274: 4140-4146).
# The C57BL[KsJ db/db mice were acclimatised for one week in standard conditions (22±2° C.; 55±15% humidity; 15-20 air changes/hour; 12 hours light/darkness cycle with light from 7.00 a.m. to 7 p.m.) with a standard 4 RF21 diet (Mucedola). Blood samples were taken in post-absorption conditions (fasting from 8.30 a.m. to 4.30 p.m.) from the caudal vein with the aid of a Jelco 22G catheter (Johnson and Johnson). Glucose, insulin, triglyceride, cholesterol, free fatty acid and urea levels were checked in plasma for a homogeneous distribution of the mice in the treatment groups.
# At the beginning of treatment the animals' body weight was checked and arrangements were made to monitor their water and feed consumption. […]
# The compound tested, obtained as described in example 4 (ST 1929) was administered at the dose of 24 mg/kg in 10 ml/kg of vehicle (1% CMC containing Tween 80 0.5% in deionized H2O).
# The other compounds tested were also administered at a dose equivalent to that in example 4.
# Ciprofibrate, a known PPARα agonist (Varanasi et al., J Biol Chem 1996, 271: 2147-2155; Latruffe et al. Cell Biochem Biophys 2000, 32 Spring: 213-220) was administered at the dose of 20 mg/kg (Dwivedi et al., Toxicol Pathol 1989, 17: 16-26; Qi et al., Proc Natl Acad Sci USA 1999, 96: 1585-1590).
# The animals were sacrificed (by decapitation) in conditions of post-absorption (fasting from 9.30 a.m. to 4.30 p.m.) 7 hours after the last treatment. The levels of a number of important lipid and carbohydrate metabolism parameters were determined in the serum.
# The HDL-cholesterol levels were measured by treating the serum with phosphotungstic-acid-based precipitating reagent (ABX Diagnostics) which removes the chylomicrons, very low density and low density lipoproteins and determining the HDL-cholesterol levels in the supernatant with the aid of the Cholesterol Kit (ABX Diagnostics) and the Cobas Mira S Autoanalyzer (Roche).
# In a further experiment, where the above reported ST2195 was used as reference compound, db/db mice were treated orally twice daily (8.30 a.m. and 6.30 p.m.) for 14 days with the test items (equimolar to 25 mg/kg of ST2 195) giving the following results reported in Table 3: […]
# Gal4DBD/PPARαLBD = target: T1, Gal4DBD/PPARαLBD (Homo sapiens, UniProt Q07869); assay: Transient transfection of COS-7 cells, Gal4DBD/PPARαLBD transactivation, CAT reporter (II method); format: cell-based; details: read-out: percentage activation of the CAT reporter gene compared to reference compound WY-14.643 2 μM taken as 100%
# T1 construct: expressed in transfected cells; host or cells: COS-7 (monkey kidney fibroblasts)
# T1 sequence (Q07869 239-466 limits assumed): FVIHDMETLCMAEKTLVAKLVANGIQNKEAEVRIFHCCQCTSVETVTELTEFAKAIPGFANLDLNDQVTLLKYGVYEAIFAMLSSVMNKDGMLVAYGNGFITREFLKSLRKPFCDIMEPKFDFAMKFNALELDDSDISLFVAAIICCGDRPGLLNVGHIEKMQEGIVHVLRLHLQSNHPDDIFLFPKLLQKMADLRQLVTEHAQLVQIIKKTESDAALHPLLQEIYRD
# Text: Transient Transfection of Eukaryotic Cells to Evaluate the Agonist Activity of PPARα Ligands (II Method)
# An alternative transactivation system, which differs mainly in the way the receptor is positioned onto the DNA, and depending on how the event of ligand binding is translated into transcriptional activation, was used.
# In this model eukaryotic cells were transiently transfected with an expression vector encoding a fusion protein between the DNA binding domain (DBD) of the yeast Gal4 transcription factor and the ligand binding domain (LBD) of the PPARα (Gal4DBD/PPARαLBD). The reporter vector containing 5 copies of the high affinity binding site for Gal4 (named UAS, upstream activating sequence) upstream of a strong viral promoter linked to the reporter gene chloramphenicol acetyltransferase (CAT), was co-transfected. This model offered some advantages, the most important of which was the absence of interference by endogenous receptors.
# Besides expression and reporter vectors, cells were transfected with a control vector pCH110 that encodes the β-galactosidase enzyme to correct for differences in transfection efficiency.
# A monkey kidney fibroblast cell line (COS-7) was used. Cells were co-transfected with the plasmid carrying the gene-reporter, the expression plasmid encoding the fusion protein Gal4DBD/PPARαLBD, and the control vector pCH110. Cells were then treated with increasing concentrations of test compounds and the CAT activity was measured. Untreated cells were used as control.
# Monkey kidney fibroblasts (COS-7) were routinely grown in DMEM (Dulbecco's modified Eagle's medium) supplemented with 3.7 g/l sodium bicarbonate, 4 mM L-glutamine, 4.5 g/l glucose, 1 mM sodium piruvate and 10% v/v foetal bovine serum, in the presence of streptomycin 100 μg/ml and penicillin 100 U/ml.
# COS-7 cells were transiently transfected by using the multi-component lipid-based FuGENE6 Transfection Reagent that complexes with and transports DNA into the cells during transfection. Cells were seeded at 1.2×10^5 cells/well, in 12-well plates, and cultured overnight at 37° C. in a 5% v/v carbon dioxide atmosphere. Two hours before transfection the culture medium was replaced by fresh serum-free medium and then transfection was performed with FuGENE6 Transfection Reagent according to the instructions of the manufacturer. Briefly, the transfection mixture containing (for each well) 0.8 μg of the expression vector, 1.6 μg of the reporter vector, 0.8 μg of the control vector and 9 μl of FuGENE6 Transfection Reagent was added directly to the cells in the presence of serum-free medium. After 5 hours the transfection medium was replaced by 1 ml of the complete culture medium with or without the test molecules at 3 different concentrations (2, 20 and 100 μM). 2 μM Wy-14,643, a known PPARα ligand, was used as positive control.
# After 48 h, the cells were washed twice with 1 ml phosphate buffer (PBS) and then harvested by scraping them in TEN buffer (Tris [hydroxymethyl] aminomethane 10 mM pH 8, ethylenediamine tetraacetic acid 1 mM, pH 8, sodium chloride 0.1 M). Following centrifugation at room temperature, for 3 min at 1000 revs per minute (rpm), cells were resuspended with 60 μl of Lysis buffer (0.25M Tris-HCl, pH 8) and lysed by three rapid freeze/thaw cycles (three 5-minute cycles). Cell debris was then removed by centrifugating at 4° C., for 15 min at 15.000 revs per minute (rpm),. Glycerol (final 10% v/v) and β-mercaptoethanol (final 5 mM) were then added (final volume 75 μl) and the cell extracts were stored at −80° C. until assayed.
# The CAT activity assay was performed as follows: 20 μl of cell lysate (pre-warmed at 65° C. for 10 min to deactivate internal deacetylase enzymatic activity) were added to 10 μl of 3.5 mg/ml n-butirryl-CoA, 5 μl ([…]) of [14C]-chloramphenicol and 65 μl of distilled H20 and incubated 2 h at 37° C. Reaction was blocked by adding 200 μl of the solution xylene/2,6,10,14 tetramethyl-pentadecane (in a 1:2 v/v mixture). […]
smiles,measurement,setting,value
"CC(C)OC(=O)C(C)(C)Oc1ccc(C(=O)c2ccc(Cl)cc2)cc1 [Fenofibrate, reference compound]",P-triglycerides,[1]; 26 mg/Kg/bid by gavage,43 ± 3 mg/dL
same,P-Cholesterol,[1]; 26 mg/Kg/bid by gavage,308 ± 18 mg/dL
same,Triglycerides (plasma),[2]; 25 mg/kg/bid by gavage,38.0 ± 2.9 Δ mg/dl
same,Triglycerides (plasma),[2]; 75 mg/kg/bid by gavage,34.4 ± 2.7 Δ mg/dl
same,Triglycerides (plasma),[2]; 125 mg/kg/bid by gavage,36.0 ± 1.2 Δ mg/dl
same,P-triglycerides,hAPO A I transgenic mice; 26 mg/kg/bid by gavage,78 ± 6 mg/dL
same,Increase in HDL/cholesterol levels (%),"db/db mice; 24.7 mg/kg, 25 days",+18%
same,Increase in HDL/cholesterol levels (%),"db/db mice; second experiment, 24.7 mg/kg, 16 days",+56[…] %
"COc1ccc(OC(=O)N(CC(=O)O)Cc2ccc(OCCc3nc(-c4ccccc4)oc3C)cc2)cc1 [Muraglitazar, reference compound]",Triglycerides (plasma),[2]; 5 mg/kg/bid by gavage,45.6 ± 3.4 mg/dL
"COC(=O)C(C)(C)Sc1ccc(OC(=O)NCc2ccc(OC)cc2)cc1 [ST2031, methyl 2-[4-[[(4-methoxybenzyl)carbamoyl]oxy]phenylthio]isobutyrate]",Increase in HDL/cholesterol levels (%),"db/db mice; oral twice daily, dose equivalent to 24 mg of ST1929, 10 days",+51 ▴ %
same,melting point,,64 to 65 °C
"COC(=O)C(C)(C)Sc1cccc(OCc2ccc(-c3ccc([N+](=O)[O-])cc3)o2)c1 [ST2501, methyl 2-[3-[5-(4-nitrophenyl)furfuryl-oxy]phenylthio]isobutyrate]",activation at 2 µM,Gal4DBD/PPARαLBD; 2 μM,85.7%
same,activation at 20 µM,Gal4DBD/PPARαLBD; 20 μM,288%
same,activation at 100 µM,Gal4DBD/PPARαLBD; 100 μM,231%
same,melting point,,81 to 82 °C
"CC(C)(Sc1cccc(OCCc2ccc(Cl)cc2)c1)C(=O)O [ST2518, 2-[3-[2-(4-chlorophenyl)ethoxy]phenylthio]-2-methylpropanoic acid]",P-Cholesterol,[1]; 25 mg/Kg/bid by gavage,200 ± 29 Δ mg/dL
same,effect on plasma-cholesterol and triglyceride levels (in words),"[1]; gavage, high-cholesterol diet",significantly reduced plasma-cholesterol and triglyceride levels
same,Triglycerides (plasma),[2]; 5 mg/kg/bid by gavage,29.4 ± 3.0 Δ mg/dl
same,Triglycerides (plasma),[2]; 15 mg/kg/bid by gavage,29.5 ± 3.4 Δ mg/dl
same,Triglycerides (plasma),[2]; 25 mg/kg/bid by gavage,24.6 ± 2.0 Δ mg/dl
same,effect on plasma triglyceride levels (in words),"[2]; treatment for 15 days, standard diet",significantly reduced plasma triglyceride levels to a higher extent than fenofibrate and muraglitazar
same,P-triglycerides,hAPO A I transgenic mice; 25 mg/kg/bid by gavage,36 ± 3 δ mg/dl
same,P-hdl-cholesterol,hAPO A I transgenic mice; 25 mg/kg/bid by gavage,252 ± 18 δ mg/dl
same,effect on HDL-cholesterol (in words),hAPO A I transgenic mice; gavage,increased HDL-cholesterol more than fenofibrate
same,effect on triglyceride levels (in words),hAPO A I transgenic mice; gavage,effective in reducing triglyceride levels
same,Increase in HDL-cholesterol levels (%),"db/db mice; further experiment, oral twice daily 14 days, dose equimolar to 25 mg/kg of ST2195, 8 hours after last treatment",+46Δ %
same,melting point,,105 to 106 °C
"CC(C)(Sc1ccc(OCCc2ccc(Cl)cc2)cc1)C(=O)O [ST 2505, 2-[4-[2-(4-chlorophenyl)ethoxy]phenylthio]-2-methylpropanoic acid]",melting point,,87 to 88 °C
CCc1ccc(CCOc2ccc(CC3SC(=O)NC3=O)cc2)nc1 (stereo not shown) [pioglitazone],P-triglycerides,[1]; 20 mg/Kg/bid by gavage,43 ± 4 mg/dL
same,P-Cholesterol,[1]; 20 mg/Kg/bid by gavage,345 ± 27 mg/dL
"CN(CCOc1ccc(CC2SC(=O)NC2=O)cc1)c1ccccn1 (stereo not shown) [rosiglitazone, reference compound]",P-triglycerides,[1]; 5 mg/Kg/bid by gavage,41 ± 3 mg/dL
same,P-Cholesterol,[1]; 5 mg/Kg/bid by gavage,354 ± 23 mg/dL
same,P-triglycerides,hAPO A I transgenic mice; 5 mg/kg/bid by gavage,74 ± 10 mg/dL
same,P-hdl-cholesterol,hAPO A I transgenic mice; 5 mg/kg/bid by gavage,144 ± 18 mg/dL
